According to the supplement of paper PMC10657565:
± gives the uncertainty stated by the source.

Columns and labels:
Assay in all cases: relative cell viability vs DMSO control (% of DMSO control); higher = less growth inhibition (higher viability)
Conditions in all cases: treatment time: 72 h
SKBR3 = system: SKBR3
Description: (§1)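 Breast cancer cell lines (BT-474, HCC1806, SUM-159, SKBR-3) were seeded in triplicate in 96-well plates and treated 24 h after seeding with kinase inhibitors at 8 doses (3 nM to 30 uM). After 72 h, viability was read by CellTiter-Glo luminescence. Values were averaged over replicates and normalised to DMSO-only (0.1%) controls on each plate to give relative viability (% of DMSO).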

SUM159 = system: SUM159
Description: as §1

BT-474 = system: BT-474
Description: as §1

HCC1806 = system: HCC1806
Description: as §1

Compound	relative cell viability (SKBR3; 0.003 µM)	relative cell viability (SKBR3; 0.01 µM)	relative cell viability (SKBR3; 0.03 µM)	relative cell viability (SKBR3; 0.1 µM)	relative cell viability (SKBR3; 0.3 µM)	relative cell viability (SKBR3; 1 µM)	relative cell viability (SKBR3; 3 µM)	relative cell viability (SKBR3; 30 µM)	relative cell viability (SUM159; 0.003 µM)	relative cell viability (SUM159; 0.01 µM)	relative cell viability (SUM159; 0.03 µM)	relative cell viability (SUM159; 0.1 µM)	relative cell viability (SUM159; 0.3 µM)	relative cell viability (SUM159; 1 µM)	relative cell viability (SUM159; 3 µM)	relative cell viability (SUM159; 30 µM)	relative cell viability (BT-474; 0.003 µM)	relative cell viability (BT-474; 0.01 µM)	relative cell viability (BT-474; 0.03 µM)	relative cell viability (BT-474; 0.1 µM)	relative cell viability (BT-474; 0.3 µM)	relative cell viability (BT-474; 1 µM)	relative cell viability (BT-474; 3 µM)	relative cell viability (BT-474; 30 µM)	relative cell viability (HCC1806; 0.003 µM)	relative cell viability (HCC1806; 0.01 µM)	relative cell viability (HCC1806; 0.03 µM)	relative cell viability (HCC1806; 0.1 µM)	relative cell viability (HCC1806; 0.3 µM)	relative cell viability (HCC1806; 1 µM)	relative cell viability (HCC1806; 3 µM)	relative cell viability (HCC1806; 30 µM)
COc1cc2ncnc(Nc3ccc(O)cc3)c2cc1OC [JANEX-1]	106 ± 3.1	104.9 ± 0.48	107 ± 1.8	105 ± 3.3	104 ± 2.6	101 ± 5.9	100 ± 1.5	61.4 ± 2.9	101 ± 6.1	103 ± 1.8	104 ± 2.1	102 ± 3.1	97.9 ± 3.6	96.2 ± 4.1	92.5 ± 1.9	59.2 ± 2.8	–	–	–	–	–	–	–	–	–	–	–	–	–	–	–	–
CN[C@@H]1C[C@H]2O[C@@](C)([C@@H]1OC)n1c3ccccc3c3c4c(c5c6ccccc6n2c5c31)C(=O)N[C@H]4O [UCN-01]	–	–	–	–	–	–	–	–	–	–	–	–	–	–	–	–	97.4 ± 3.3	89.9 ± 2	85.5 ± 2.9	85.9 ± 11	56.9 ± 3.2	34.5 ± 3.3	15.9 ± 0.39	6.69 ± 0.4	97.8 ± 4.1	76.3 ± 6.7	36.7 ± 12	9.05 ± 0.96	8.6 ± 0.48	7.53 ± 0.63	2.19 ± 0.3	0.853 ± 0.066
Cc1c(F)cc(C(=O)NC2CC2)cc1-c1ccc(C(=O)NCC(C)(C)C)cn1 [Losmapimod]	105 ± 4.8	102 ± 7	101 ± 5.5	95.9 ± 5.4	95.9 ± 5.7	93 ± 4.7	93.4 ± 2.4	73.6 ± 2.7	98.8 ± 3	97.2 ± 1.3	98 ± 7	99 ± 5.2	92.7 ± 2.7	91.5 ± 5	87.5 ± 2.5	68.5 ± 3.9	–	–	–	–	–	–	–	–	–	–	–	–	–	–	–	–
c1cc(OCCN2CCCCC2)cc(-c2n[nH]c3ccc(-c4nnc[nH]4)cc23)c1 [CC-401]	104 ± 2.5	104 ± 5.8	105 ± 2.5	100 ± 3.7	99.8 ± 2.2	94.5 ± 4.1	91 ± 2.1	68.2 ± 3.2	102 ± 3.9	102 ± 5	101 ± 2.8	99.9 ± 2.5	98.4 ± 4.2	103 ± 2.2	105 ± 3.4	52.5 ± 2.7	–	–	–	–	–	–	–	–	–	–	–	–	–	–	–	–
CN1CCN(c2nc(C3=C(c4c[nH]c5ccccc45)C(=O)NC3=O)c3ccccc3n2)CC1 [Sotrastaurin]	–	–	–	–	–	–	–	–	–	–	–	–	–	–	–	–	111 ± 4.3	108 ± 9.6	104 ± 15	99.8 ± 21	91 ± 26	84.5 ± 32	76.8 ± 29	42.4 ± 18	101 ± 2.4	98.3 ± 3.2	100 ± 1.9	103 ± 2.2	103 ± 3.5	104 ± 3.6	103 ± 1.9	43.3 ± 5.5
C[C@]12O[C@H](C[C@]1(O)CO)n1c3ccccc3c3c4c(c5c6ccccc6n2c5c31)CNC4=O [Lestaurtinib]	–	–	–	–	–	–	–	–	–	–	–	–	–	–	–	–	87.8 ± 1.5	77.2 ± 3.4	73.6 ± 4.1	66.8 ± 7.2	59.5 ± 2.3	49.5 ± 2.6	37.9 ± 0.67	1.31 ± 0.099	83.42 ± 0.79	63.1 ± 3	43.6 ± 5.3	16 ± 0.76	7.81 ± 0.93	3.73 ± 0.28	2.9 ± 0.12	0.918 ± 0.075
Cc1cc(Nc2ncc(Cl)c(Nc3ccccc3S(=O)(=O)C(C)C)n2)c(OC(C)C)cc1C1CCNCC1 [Ceritinib]	104 ± 3	105 ± 2	102 ± 4.2	99.8 ± 3.8	96.4 ± 2.8	89.1 ± 5.3	10.7 ± 4.1	0.491 ± 0.1	103 ± 1.4	104 ± 2.6	103 ± 2.6	97.1 ± 3.6	90.8 ± 8.2	53.9 ± 11	1.44 ± 0.14	0.279 ± 0.078	–	–	–	–	–	–	–	–	–	–	–	–	–	–	–	–
Cn1nccc1Nc1nccc(-c2ccn([C@H](CO)c3ccc(Cl)c(F)c3)c(=O)c2)n1 [GDC-0994]	–	–	–	–	–	–	–	–	–	–	–	–	–	–	–	–	102 ± 6.2	101 ± 6.1	97.6 ± 7.6	94.3 ± 3.5	95.3 ± 5	97.8 ± 9.2	101 ± 11	88.4 ± 6.7	97.15 ± 0.91	94.8 ± 2.7	92 ± 4.1	88.3 ± 6.2	81.5 ± 3.2	81.6 ± 4	84.9 ± 3.7	73.5 ± 2.6
COCc1c(-c2ccc(NC(=O)Nc3cc(C(F)(F)F)ccc3F)c(F)c2)c2c(N)ncnn2c1CN1CCOCC1 [ACTB-1003]	105 ± 0.92	104 ± 2.9	107 ± 3.9	106 ± 2.7	107 ± 3.3	98.8 ± 2	78.2 ± 4	3.14 ± 0.2	101.4 ± 0.75	99.02 ± 0.34	96.9 ± 4.4	98.6 ± 1.8	91.7 ± 2.9	73.4 ± 5.4	39.5 ± 3.3	0.887 ± 0.066	–	–	–	–	–	–	–	–	–	–	–	–	–	–	–	–
CC(C)c1cc(CNc2nc(Nc3cc(C4CC4)[nH]n3)cc(N3CCN(C)CC3)n2)on1 [XL-228]	103 ± 1.4	101 ± 2.3	101 ± 7.3	100 ± 6.3	115 ± 6.3	117 ± 3.9	52.2 ± 6.2	6.72 ± 0.86	74.7 ± 5.2	61.4 ± 1.7	54.32 ± 0.48	36.5 ± 1.4	26.8 ± 1.6	11 ± 0.61	6.45 ± 0.28	10.8 ± 0.58	–	–	–	–	–	–	–	–	–	–	–	–	–	–	–	–
Cn1c(=O)c(F)c(Nc2ccc(I)cc2F)c2c(=O)n(C[C@@H](O)CO)cnc21 [TAK-733]	–	–	–	–	–	–	–	–	–	–	–	–	–	–	–	–	104 ± 16	103 ± 7.3	104 ± 11	94.8 ± 12	99.5 ± 11	93 ± 14	92 ± 9.1	36.3 ± 9.5	77.8 ± 5.2	75.1 ± 5.4	73.8 ± 3.5	72.7 ± 4.1	71.6 ± 2.5	71.6 ± 3.9	70.3 ± 3.3	39.2 ± 3.9
